Activity calls are given as the source filed them.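 The calls were made as follows: active = compound whose activity held up on retesting over a range of doses, giving a fitted IC50; inactive = the rest.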
System: E. coli EV36, T7 phage lysis inhibition, OD600
Experiment: blocking T7-induced lysis of EV36 cultures – OD600, set 6, selectivity assay for bacterial capsule biogenesis inhibitor project, dose response (AID 652019)

Row | Structure (SMILES) | IC50
1 | CC(C)(C)OC(=O)Nc1nc2ccc(C(=O)Nc3ccnc(Cl)c3)cc2s1 | 0.49 µM
2 | O=C(Nc1ccncc1Br)c1ccc2nc(N3CCCC3)sc2c1 | > 50 µM (inactive)
3 | CC(C)(C)OC(=O)Nc1nc2ccc(C(=O)Nc3ccncc3)cc2s1 | > 50 µM (inactive)
4 | Cc1cc(NC(=O)c2ccc3nc(N4CCCC4)sc3c2)ccn1 | > 50 µM (inactive)
5 | CC(C)(C)OC(=O)Nc1cnccc1NC(=O)c1ccc2nc(N)sc2c1 | > 50 µM (inactive)
6 | Cc1cnccc1NC(=O)c1ccc2nc(NC(=O)OC(C)(C)C)sc2c1 | > 50 µM (inactive)
7 | O=C(Nc1ccnc(Br)c1)c1ccc2nc(N3CCCC3)sc2c1 | > 50 µM (inactive)
8 | Cc1cnccc1NC(=O)c1ccc2ncsc2c1 | 3.58 µM
9 | Cc1nc2ccc(C(=O)Nc3ccncc3Br)cc2s1 | > 50 µM (inactive)
10 | Nc1ccncc1 | > 50 µM (inactive)
11 | Nc1cnccc1NC(=O)c1ccc2ncsc2c1 | > 50 µM (inactive)
12 | O=C(Nc1ccnc(Cl)c1)c1ccc2nc(N3CCCC3)sc2c1 | > 50 µM (inactive)
13 | Cc1nc2ccc(C(=O)Nc3cnccc3NC(=O)OC(C)(C)C)cc2s1 | > 50 µM (inactive)
14 | Nc1nc2ccc(C(=O)Nc3ccncc3)cc2s1 | > 50 µM (inactive)
15 | O=C(Nc1ccncc1Br)c1ccc2ncsc2c1 | > 50 µM (inactive)
16 | COc1cc(NC(=O)c2ccc3nc(N)sc3c2)ccn1 | 0.94 µM
17 | CC(C)(C)OC(=O)Nc1ccc(NC(=O)c2ccc3nc(N4CCCC4)sc3c2)cn1 | > 50 µM (inactive)
18 | CC(C)(C)OC(=O)Nc1nc2ccc(C(=O)Nc3ccnc(Br)c3)cc2s1 | 3.66 µM
19 | Cc1nc2ccc(C(=O)Nc3ccncc3F)cc2s1 | > 50 µM (inactive)

Row | Structure (SMILES) | IC50
20 | Cc1nc2ccc(C(=O)Nc3ccnc(F)c3)cc2s1 | > 50 µM (inactive)
21 | Cc1cnccc1NC(=O)c1ccc2nc(N)sc2c1 | > 50 µM (inactive)
22 | Cc1cc(NC(=O)c2ccc3nc(NC(=O)OC(C)(C)C)sc3c2)ccn1 | 0.49 µM
23 | COc1cc(NC(=O)c2ccc3nc(C)sc3c2)ccn1 | 3.96 µM
24 | O=C(O)c1ccc2ncsc2c1 | > 50 µM (inactive)
25 | CC(C)(C)OC(=O)Nc1ccc(NC(=O)c2ccc3nc(NC(=O)OC(C)(C)C)sc3c2)cn1 | > 50 µM (inactive)
26 | COc1cc(NC(=O)c2ccc3nc(NC(=O)OC(C)(C)C)sc3c2)ccn1 | > 50 µM (inactive)
27 | O=C(Nc1ccncc1F)c1ccc2nc(N3CCCC3)sc2c1 | > 50 µM (inactive)
28 | COc1cc(NC(=O)c2ccc3nc(N4CCCC4)sc3c2)ccn1 | > 50 µM (inactive)
29 | CC(C)(C)OC(=O)Nc1nc2ccc(C(=O)Nc3ccnc(F)c3)cc2s1 | 1.16 µM
30 | O=C(Nc1ccncc1)c1ccc2nc(N3CCCC3)sc2c1 | > 50 µM (inactive)
31 | CC(C)(C)OC(=O)Nc1cnccc1NC(=O)c1ccc2ncsc2c1 | > 50 µM (inactive)
32 | CC(C)(C)OC(=O)Nc1nc2ccc(C(=O)Nc3ccncc3Br)cc2s1 | > 50 µM (inactive)
33 | Cc1nc2ccc(C(=O)Nc3ccncc3)cc2s1 | 2.54 µM
34 | O=C(Nc1ccncc1F)c1ccc2ncsc2c1 | 3.31 µM
35 | Nc1nc2ccc(C(=O)Nc3ccncc3F)cc2s1 | > 50 µM (inactive)
36 | Cc1cnccc1NC(=O)c1ccc2nc(N3CCCC3)sc2c1 | > 50 µM (inactive)
37 | Cc1nc2ccc(C(=O)Nc3ccncc3C)cc2s1 | > 50 µM (inactive)

From PubChem BioAssay AID652019 (Molecular Libraries Program, Specialized Chemistry Center, …, 2013)
